# Measurements published in ChEMBL document CHEMBL1201862, “PubChem BioAssay data set” (2004).
#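 Briefly, cells in 96-well plates were exposed to five compound concentrations for 48 h, and endpoints were estimated by linear interpolation. At the GI50, growth is halved.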 The source made the active and inactive calls. Cut-off read from the data, not from the text of the source: active = GI50 up to about 1.1 µM and inactive = higher.
# What was measured:
# Experiment in all cases: inhibition of tumour cell growth, NCI panel, 48 h
# UACC-257 = test system: UACC-257
# UO-31 = test system: UO-31
# Malme-3M = test system: Malme-3M
# KM12 = test system: KM12
# RPMI-8226 = test system: RPMI-8226
# CCRF-CEM = test system: CCRF-CEM
# SK-OV-3 = test system: SK-OV-3
# NCI-H23 = test system: NCI-H23
# HOP-62 = test system: HOP-62
# SNB-78 = test system: SNB-78
# SK-MEL-2 = test system: SK-MEL-2
# SF-539 = test system: SF-539
# U-251 = test system: U-251
# SW-620 = test system: SW-620
# NCI-H522 = test system: NCI-H522
# 786-0 = test system: 786-0
# MDA-N = test system: MDA-N
# T47D = test system: T47D
# NCI/ADR-RES = test system: NCI/ADR-RES
# MDA-MB-435 = test system: MDA-MB-435
Compound,GI50 (UACC-257),GI50 (UO-31),GI50 (Malme-3M),GI50 (KM12),GI50 (RPMI-8226),GI50 (CCRF-CEM),GI50 (SK-OV-3),GI50 (NCI-H23),GI50 (HOP-62),GI50 (SNB-78),GI50 (SK-MEL-2),GI50 (SF-539),GI50 (U-251),GI50 (SW-620),GI50 (NCI-H522),GI50 (786-0),GI50 (MDA-N),GI50 (T47D),GI50 (NCI/ADR-RES),GI50 (MDA-MB-435)
Cc1ccc(/C=C2\CCCC(C(NO)c3ccc(C)cc3)C2=NO)cc1 (stereo not drawn),29.6 µM (inactive),57.4 µM (inactive),52.2 µM (inactive),21.2 µM (inactive),22.6 µM (inactive),21 µM (inactive),> 100 µM (inactive),24 µM (inactive),59.8 µM (inactive),60 µM (inactive),69.2 µM (inactive),39.6 µM (inactive),55.2 µM (inactive),42.6 µM (inactive),28.5 µM (inactive),58.3 µM (inactive),,,,
CCOC(C)C(/C=N/NC(N)=S)=NNC(N)=S (stereo not drawn) [GLOXAZONE],< 0.0411 µM (active),,92.3 µM (inactive),> 100 µM (inactive),0.0643 µM (active),< 0.0208 µM (active),> 100 µM (inactive),> 100 µM (inactive),> 100 µM (inactive),53.7 µM (inactive),29.1 µM (inactive),> 100 µM (inactive),1.07 µM (active),> 100 µM (inactive),26.2 µM (inactive),> 100 µM (inactive),,,,
COc1cc(/C=N/N=C(\N)NO)ccc1O,> 100 µM (inactive),41.4 µM (inactive),75.9 µM (inactive),77.1 µM (inactive),> 100 µM (inactive),> 100 µM (inactive),78.7 µM (inactive),57.1 µM (inactive),,> 100 µM (inactive),69.3 µM (inactive),46.3 µM (inactive),91.2 µM (inactive),68.2 µM (inactive),46.3 µM (inactive),> 10 µM (inactive),,,,
COc1cc(C=C2C(=O)OC(C)(C)OC2=O)cc(OC)c1OC,> 100 µM (inactive),> 100 µM (inactive),> 100 µM (inactive),> 100 µM (inactive),> 100 µM (inactive),> 100 µM (inactive),> 100 µM (inactive),> 100 µM (inactive),,> 100 µM (inactive),> 100 µM (inactive),> 100 µM (inactive),> 100 µM (inactive),> 100 µM (inactive),> 100 µM (inactive),> 100 µM (inactive),,,,
CCCCCCCCCCCCCCCC(=O)Nc1ccn(C2OC(CO)C(O)C2O)c(=O)n1 (stereo not drawn),78.3 µM (inactive),3.4 µM (inactive),4.22 µM (inactive),29.4 µM (inactive),42.2 µM (inactive),0.0308 µM (active),16.7 µM (inactive),2.05 µM (inactive),0.887 µM (active),> 100 µM (inactive),> 100 µM (inactive),57.7 µM (inactive),12.4 µM (inactive),> 90.4 µM (inactive),2.25 µM (inactive),4.01 µM (inactive),30.3 µM (inactive),30.1 µM (inactive),7.23 µM (inactive),27.6 µM (inactive)
N=C(N)NCCCCCCC(=O)NC(O)C(=O)NCCCCNCCCN (stereo not drawn),> 750 µM (inactive),590 µM (inactive),582 µM (inactive),577 µM (inactive),483 µM (inactive),515 µM (inactive),> 750 µM (inactive),684 µM (inactive),726 µM (inactive),> 750 µM (inactive),505 µM (inactive),> 628 µM (inactive),611 µM (inactive),> 750 µM (inactive),479 µM (inactive),3070 µM (inactive),2360 µM (inactive),> 750 µM (inactive),> 750 µM (inactive),> 750 µM (inactive)
O=C(O)/C(Cl)=C(Cl)/C=N/NC(=O)c1cc2ccccc2cc1O,15.5 µM (inactive),2.48 µM (inactive),37.2 µM (inactive),36.8 µM (inactive),6.71 µM (inactive),4.86 µM (inactive),49.2 µM (inactive),8.57 µM (inactive),36.6 µM (inactive),33.7 µM (inactive),16 µM (inactive),29.6 µM (inactive),27.5 µM (inactive),17.3 µM (inactive),22.1 µM (inactive),19.1 µM (inactive),,,,
CC12CC(Br)(Br)C(=O)C3C1CCCC32,8.65 µM (inactive),6.05 µM (inactive),4.06 µM (inactive),13 µM (inactive),2.84 µM (inactive),1.36 µM (inactive),15.3 µM (inactive),6.46 µM (inactive),17.5 µM (inactive),20 µM (inactive),13.9 µM (inactive),11.9 µM (inactive),11.5 µM (inactive),2.25 µM (inactive),3.08 µM (inactive),4.07 µM (inactive),2.99 µM (inactive),2.38 µM (inactive),2.51 µM (inactive),3.03 µM (inactive)
COc1cc2c(c(OC)c1OC)-c1ccc(SC)c(=O)cc1[C@@H](NCc1ccc([N+](=O)[O-])cc1)CC2,0.00516 µM (active),0.406 µM (active),0.00583 µM (active),0.0034 µM (active),0.00349 µM (active),0.00277 µM (active),0.00315 µM (active),0.00324 µM (active),0.00741 µM (active),0.00904 µM (active),0.0113 µM (active),0.00271 µM (active),0.00416 µM (active),0.00342 µM (active),0.00313 µM (active),0.00624 µM (active),,,,
NCC(NC(=O)OCc1ccccc1)C(=O)O (stereo not drawn),> 50 µM (inactive),> 50 µM (inactive),> 50 µM (inactive),> 50 µM (inactive),> 50 µM (inactive),> 50 µM (inactive),> 50 µM (inactive),> 50 µM (inactive),> 50 µM (inactive),> 50 µM (inactive),> 50 µM (inactive),> 50 µM (inactive),> 50 µM (inactive),> 50 µM (inactive),> 50 µM (inactive),> 50 µM (inactive),,,,
N=C1OC(c2ccc3c(c2)OCO3)C(NNS(=O)(=O)c2ccccc2)=C1O (stereo not drawn),> 100 µM (inactive),> 100 µM (inactive),> 100 µM (inactive),> 100 µM (inactive),87.1 µM (inactive),44.6 µM (inactive),> 100 µM (inactive),52.5 µM (inactive),> 100 µM (inactive),> 100 µM (inactive),68.2 µM (inactive),> 100 µM (inactive),54.7 µM (inactive),> 100 µM (inactive),48.5 µM (inactive),> 100 µM (inactive),,,,
CCN1C[C@]2(C)CC[C@H](OC)C34C1C([C@H](OC(C)=O)[C@@H]32)[C@@]1(OC)C[C@H](OC)[C@H]2C[C@@H]4[C@@H]1[C@H]2O,> 100 µM (inactive),> 100 µM (inactive),> 100 µM (inactive),> 100 µM (inactive),> 100 µM (inactive),> 100 µM (inactive),> 100 µM (inactive),> 100 µM (inactive),> 100 µM (inactive),> 100 µM (inactive),> 100 µM (inactive),> 100 µM (inactive),> 100 µM (inactive),54.2 µM (inactive),> 100 µM (inactive),> 100 µM (inactive),,,,
CC(=O)OC1CC2(C)OC(Cc3ccccc32)O1 (stereo not drawn),> 100 µM (inactive),> 100 µM (inactive),> 100 µM (inactive),> 100 µM (inactive),> 100 µM (inactive),> 100 µM (inactive),> 100 µM (inactive),> 100 µM (inactive),> 100 µM (inactive),> 100 µM (inactive),> 100 µM (inactive),> 100 µM (inactive),> 100 µM (inactive),> 100 µM (inactive),> 100 µM (inactive),> 100 µM (inactive),,,,
CCOC(C/N=c1/nc(N(C)C)ss1)OCC,26.4 µM (inactive),43.5 µM (inactive),7.71 µM (inactive),4.61 µM (inactive),1.16 µM (inactive),0.208 µM (active),> 100 µM (inactive),33.5 µM (inactive),65.6 µM (inactive),24.6 µM (inactive),13.8 µM (inactive),17.4 µM (inactive),16 µM (inactive),2.6 µM (inactive),0.0998 µM (active),17.7 µM (inactive),3.56 µM (inactive),23.4 µM (inactive),> 100 µM (inactive),1.91 µM (inactive)
Cc1ccc(-c2cc(=O)c3cc(C)c(C)c(C(=O)O)c3o2)cc1,> 100 µM (inactive),> 100 µM (inactive),> 100 µM (inactive),> 100 µM (inactive),> 100 µM (inactive),> 100 µM (inactive),> 100 µM (inactive),> 100 µM (inactive),> 100 µM (inactive),> 100 µM (inactive),> 100 µM (inactive),29.9 µM (inactive),> 100 µM (inactive),> 100 µM (inactive),24.3 µM (inactive),> 100 µM (inactive),,,,
